Test results taken from US7163711B2, “Crystalline α-D-glucosyl α-D-galactoside, saccharide composition comprising the same, process for producing the same, and uses thereof” (Kabushiki Kaisha Hayashibara Seibutsu Kagaku Kenkyujo, priority 2002, dated 2007).

Tests used:
Assay type in all cases: physicochemical
[1] = Moisture absorption test on amorphous α-D-glucosyl α-D-galactoside; settings: 25° C.; for Diffraction spectrum: powdery X-ray diffraction
Description: The crystalline powder of α-D-glucosyl α-D-galactoside obtained in Experiment 3 was examined for crystallinity by powdery X-ray diffraction analysis by using “GEIGERFLEX RAD-IIB™”, an X-ray diffraction analyzer using Cuk α ray commercialized by Rigaku Corporation, Tokyo, Japan, to obtain a spectrum as shown in FIG. 3 having peaks with diffraction angles (2θ) of at least 13.4°, 17.4°, 19.7°, and 22.3°. Crystallinity of the crystallized powder was calculated to be about 72.5% by using “Program for Crystallinity Analysis by Ruland method”, a computer program installed in the analyzer.
(§1) A half gram aliquots of the crystalline powder of α-D-glucosyl α-D-galactoside obtained in Experiment 3 were placed in aluminum weighing cans, which had been precisely weighed in advance, and each weighing can was weighed. The weight of each weighing can was subtracted from the total weight to calculate the starting weight of the crystalline powder of α-D-glucosyl α-D-galactoside. Each weighing can with the crystalline powder of α-D-glucosyl α-D-galactoside was placed in a glass desiccator which the relative humidity was controlled to a level of 33–99% in advance, and stored at 25° C. for one to seven days while keeping at the desired humidity. After the moisture absorption test, each weighing can had been precisely weighted and calculated for increasing weight to obtain a moisture absorption level (%). In the test, the crystalline powder was macroscopically observed.
The crystalline powder of α-D-glucosyl α-D-galactoside obtained in Experiment 3 was dissolved in water to obtain an aqueous solution with a concentration of 30% (w/w). The resultant aqueous solution was frozen and dried into an amorphous powder of α-D-glucosyl α-D-galactoside. Similar as in Experiment 10, the obtained amorphous powder was placed in aluminum weighing cans, and the cans were placed in a glass desiccator which the relative humidity was controlled to a level of 43–90% in advance, and stored at 25° C. for one to seven days while keeping at the desired humidity. After the moisture absorption test, moisture absorption level (%) was calculated similarly as in Experiment 10. In the test, the appearance of each powder was macroscopically observed. Samples after a storage for seven days were confirmed for their appearance by a powdery X-ray diffraction analysis in Experiment 4, and samples with crystals were examined for their crystallinity.

[2] = Saturated concentration for water; settings: shaken 48 hours, d.s.b.
Description: A surplus volume of the crystalline powder of α-D-glucosyl α-D-galactoside obtained in Experiment 3 was added to 10 ml of distilled water, shaken at 25° C. or 40° C. for 48 hours, and filtrated to collect a crystalline powder, which is more than the solubility, by using a 0.45 μm filter, followed by collecting two filtrates (saturated solutions). Moisture content of the filtrates was measured by using a desiccating agent method described in “Standard Methods of Analysis in Food Safety Regulation, Chemistry” published by Japan Food Hygiene Association under the editorship of Ministry of Health, Labor and Welfare, 1991, to examine a saturated concentration of α-D-glucosyl α-D-galactoside.

[3] = Moisture absorption test on crystalline α-D-glucosyl α-D-galactoside; settings: 25° C.
Excerpt: as §1

[4] = relative humidity 43%, storage for one day
[5] = relative humidity 43%, storage for seven days
[6] = relative humidity 53%, storage for one day
[7] = relative humidity 53%, storage for seven days
[8] = relative humidity 60%, storage for one day
[9] = relative humidity 60%, storage for seven days
[10] = relative humidity 90%, storage for one day
[11] = relative humidity 90%, storage for seven days
[12] = relative humidity 33%, storage one day
[13] = relative humidity 33%, storage seven days
[14] = relative humidity 33%, storage three days
[15] = relative humidity 33%, storage two days
[16] = relative humidity 43%, storage one day
[17] = relative humidity 43%, storage seven days
[18] = relative humidity 43%, storage three days
[19] = relative humidity 43%, storage two days
[20] = relative humidity 53%, storage one day
[21] = relative humidity 53%, storage seven days
[22] = relative humidity 53%, storage three days
[23] = relative humidity 53%, storage two days
[24] = relative humidity 60%, storage one day
[25] = relative humidity 60%, storage seven days
[26] = relative humidity 60%, storage three days
[27] = relative humidity 60%, storage two days
[28] = relative humidity 75%, storage one day
[29] = relative humidity 75%, storage seven days
[30] = relative humidity 75%, storage three days
[31] = relative humidity 75%, storage two days
[32] = relative humidity 84%, storage one day
[33] = relative humidity 84%, storage seven days
[34] = relative humidity 84%, storage three days
[35] = relative humidity 84%, storage two days
[36] = relative humidity 90%, storage one day
[37] = relative humidity 90%, storage seven days
[38] = relative humidity 90%, storage three days
[39] = relative humidity 90%, storage two days

OC[C@H]1O[C@H](O[C@H]2O[C@H](CO)[C@@H](O)[C@H](O)[C@H]2O)[C@H](O)[C@@H](O)[C@H]1O [amorphous α-D-glucosyl α-D-galactoside, α-D-glucosyl α-D-galactoside]
A(%)* Moisture absorption level [1, 4]: 4.5% | Appearance (macroscopically observed) [1, 4]: Solidified | A(%)* Moisture absorption level [1, 5]: 6.3% | Appearance (macroscopically observed) [1, 5]: Solidified | Diffraction spectrum [1, 5]: Amorphous | A(%)* Moisture absorption level [1, 6]: 3.5% | Appearance (macroscopically observed) [1, 6]: Wet on the surface | A(%)* Moisture absorption level [1, 7]: 1.8% | Appearance (macroscopically observed) [1, 7]: Hardened | Crystallinity [1, 7]: 67% | Diffraction spectrum [1, 7]: Crystal monohydrate | A(%)* Moisture absorption level [1, 8]: 3.1% | Appearance (macroscopically observed) [1, 8]: Wet on the surface | A(%)* Moisture absorption level [1, 9]: 2.0% | Appearance (macroscopically observed) [1, 9]: Hardened | Crystallinity [1, 9]: 71% | Diffraction spectrum [1, 9]: Crystal monohydrate | A(%)* Moisture absorption level [1, 10]: 13.2% | Appearance (macroscopically observed) [1, 10]: Partial deliquescence | A(%)* Moisture absorption level [1, 11]: 36.2% | Appearance (macroscopically observed) [1, 11]: Deliquescence | moisture absorption (in words) ([1]; relative humidity of 43–90%, one to seven days): remarkably absorbed moisture

OC[C@H]1O[C@H](O[C@H]2O[C@H](CO)[C@@H](O)[C@H](O)[C@H]2O)[C@H](O)[C@@H](O)[C@H]1O [crystalline α-D-glucosyl α-D-galactoside, α-D-glucosyl α-D-galactoside]
saturated concentration in water ([2]; 25° C.): 68.9 % (w/w) | saturated concentration in water ([2]; 40° C.): 71.8 % (w/w) | A(%) Moisture absorption level [3, 12]: 0.0% | Appearance [3, 12]: Unchanged | A(%) Moisture absorption level [3, 13]: 0.0% | Appearance [3, 13]: Unchanged | A(%) Moisture absorption level [3, 14]: 0.0% | Appearance [3, 14]: Unchanged | A(%) Moisture absorption level [3, 15]: 0.0% | Appearance [3, 15]: Unchanged | A(%) Moisture absorption level [3, 16]: 0.0% | Appearance [3, 16]: Unchanged | A(%) Moisture absorption level [3, 17]: 0.0% | Appearance [3, 17]: Unchanged | A(%) Moisture absorption level [3, 18]: 0.0% | Appearance [3, 18]: Unchanged | A(%) Moisture absorption level [3, 19]: 0.0% | Appearance [3, 19]: Unchanged | A(%) Moisture absorption level [3, 20]: 0.0% | Appearance [3, 20]: Unchanged | A(%) Moisture absorption level [3, 21]: 0.1% | Appearance [3, 21]: Unchanged | A(%) Moisture absorption level [3, 22]: 0.0% | Appearance [3, 22]: Unchanged | A(%) Moisture absorption level [3, 23]: 0.0% | Appearance [3, 23]: Unchanged | A(%) Moisture absorption level [3, 24]: 0.1% | Appearance [3, 24]: Unchanged | A(%) Moisture absorption level [3, 25]: 0.2% | Appearance [3, 25]: Unchanged | A(%) Moisture absorption level [3, 26]: 0.1% | Appearance [3, 26]: Unchanged | A(%) Moisture absorption level [3, 27]: 0.1% | Appearance [3, 27]: Unchanged | A(%) Moisture absorption level [3, 28]: 0.1% | Appearance [3, 28]: Unchanged | A(%) Moisture absorption level [3, 29]: 0.2% | Appearance [3, 29]: Unchanged | A(%) Moisture absorption level [3, 30]: 0.1% | Appearance [3, 30]: Unchanged | A(%) Moisture absorption level [3, 31]: 0.1% | Appearance [3, 31]: Unchanged | A(%) Moisture absorption level [3, 32]: 3.2% | Appearance [3, 32]: Hardened | A(%) Moisture absorption level [3, 33]: 11.0% | Appearance [3, 33]: Hardened | A(%) Moisture absorption level [3, 34]: 6.1% | Appearance [3, 34]: Hardened | A(%) Moisture absorption level [3, 35]: 4.4% | Appearance [3, 35]: Hardened | A(%) Moisture absorption level [3, 36]: 6.9% | Appearance [3, 36]: p.d. | A(%) Moisture absorption level [3, 37]: 42.1% | Appearance [3, 37]: Deliquescence | A(%) Moisture absorption level [3, 38]: 19.2% | Appearance [3, 38]: Deliquescence | A(%) Moisture absorption level [3, 39]: 11.8% | Appearance [3, 39]: p.d. | moisture absorption (in words) ([3]; relative humidity of 75% or lower, one to seven days): did not absorb moisture
